Laboratory results taken from ChEMBL document CHEMBL5726462, “Substituted quinolines as modulators of sodium channels” (2017).

Assay: Electrophysiology Assays: Patch clamp electrophysiology was used to assess the efficacy and selectivity of sodium channel blockers in dorsal root ganglion neurons. Rat neurons were isolated from the dorsal root ganglions and maintained in culture for 2 to 10 days in the presence of NGF (50 ng/ml) (culture media consisted of NeurobasalA supplemented with B27, glutamine and antibiotics). Small diameter neurons (nociceptors, 8-12 μm in diameter) were visually identified and probed with fine tip glass electrodes connected to an amplifier (Axon Instruments). The voltage clamp mode was used to assess the compound's IC50 holding the cells at −60 mV. In addition, the current clamp mode was employed to test the efficacy of the compounds in blocking action potential generation in response to current injections. The results of these experiments contributed to the definition of the efficacy profile of the compounds.

Row | SMILES | IC50
1 | COc1cc(F)ccc1Oc1nc2ccccc2nc1C(=O)Nc1nnn[nH]1 | 2200 nM
2 | O=C(O)c1ccc(NC(=O)c2cc3ccccc3nc2Oc2ccccc2OC(F)F)cc1 | 975 nM
3 | O=C(O)c1ccc(NC(=O)c2cc3ccccc3nc2Oc2ccc(F)cc2Cl)cn1 | 96 nM
4 | COc1ccc(Oc2nc3ccccc3cc2C(=O)Nc2ccc(C(=O)O)cc2)c(OC)c1 | 550 nM
5 | Cc1cc(F)ccc1Oc1nc2ccccc2cc1C(=O)Nc1ccc(C(=O)O)cc1 | 315 nM
6 | O=C(O)c1ccc(NC(=O)c2cc3ccccc3nc2Oc2ccc(F)cc2F)cc1 | 275 nM
7 | O=C(O)c1ccc(NC(=O)c2cc3ccccc3nc2Oc2ccc(F)cc2F)cn1 | 255 nM
8 | NS(=O)(=O)c1cccc(NC(=O)c2cc3ccccc3nc2Oc2ccccc2OC(F)F)c1 | 24 nM
